Marks after values point to notes of the source that are not given here. Ends that are not written are not given here. Peptide text beside a SMILES is read from it. * marks the point of attachment. X1 = C[n+]1ccn(Cc2cn(CC(=O)*)nn2)c1

Results on two compounds are retold here after article PMC7504088, ““Clicking” an Ionic Liquid to a Potent Antimicrobial Peptide: On the Route towards Improved Stability” (International Journal of Molecular Sciences, 2020).

Data set [1] has as its system E. coli Ec2 (MDR clinical isolate). The format is cell-based, Escherichia coli. The method, then:
(§1) Both the conjugate MeIm-3.1-PP4 and its parent peptide 3.1-PP4 were next screened for their antibacterial activity. Minimum inhibitory concentration (MIC) values were determined following the Clinical and Laboratory Standards Institute (CLSI) protocol, against Gram-positive (Staphylococcus aureus and Enterococcus faecalis), and Gram-negative (Pseudomonas aeruginosa, Escherichia coli and Klebsiella pneumoniae) bacteria, including both reference strains (American Type Culture Collection, ATCC), and multidrug-resistant (MDR) clinical isolates. […] Relevantly, in most cases, MIC values matched the minimum bactericidal concentration (MBC) values, highlighting a bactericidal action for both MeIm-3.1-PP4 and its parent peptide.
(§2) The MIC of the test compounds was determined according to the CLSI guidelines. Briefly, the compounds were tested in the 1–1024 µg/mL concentration range, using the microdilution method in cation-adjusted Mueller-Hinton broth (MHB II) against reference strains of P. aeruginosa ATCC 27853, E. coli ATCC 25922, S. aureus ATCC 25923, and Enterococcus faecalis ATCC 29212. MIC values were also determined against MDR clinical isolates (antibiotic resistance patterns given in Supplementary Materials, Table S1) of P. aeruginosa (PA004, Pa3, Pa4), E. coli (Ec2, EC001, EC002, EC003), K. pneumoniae (KP004, KP010), S. aureus (SA007), and Enterococcus faecalis (Ef1). Along with the MIC values, MBC values were also determined as previously reported.

The subject of data set [2] is E. coli ATCC 25922. The format is cell-based, Escherichia coli. How it is done:
as §1, §2

Data set [3] deals with E. coli EC001 (MDR clinical isolate). The format is cell-based, Escherichia coli. The method, then: as §1, §2
In data set [4] the test system is E. coli EC003 (MDR clinical isolate). The format is cell-based, Escherichia coli. The method, then:
as §1, §2

Data set [5] relates to E. coli EC002 (MDR clinical isolate). Format: cell-based, Escherichia coli. The method, then:
as §1, §2

For data set [6], the system named is P. aeruginosa Pa4 (MDR clinical isolate). The format is cell-based, Pseudomonas aeruginosa. The method, then:
as §1, §2

Data set [7] concerns P. aeruginosa PA004 (MDR clinical isolate). Format: cell-based, Pseudomonas aeruginosa. The method, then:
as §1, §2

Data set [8] has as its system P. aeruginosa Pa3 (MDR clinical isolate). Format: cell-based, Pseudomonas aeruginosa. The method, then:
as §1, §2

The test system of data set [9] is P. aeruginosa ATCC 27853. Format: cell-based, Pseudomonas aeruginosa. The method, then:
as §1, §2

Data set [10] concerns Enterococcus faecalis Ef1 (MDR clinical isolate). The format is cell-based. How it is done: as §1, §2
Data set [11] has as its system Enterococcus faecalis ATCC 29212. The format is cell-based. How it is done:
as §1, §2

The test system of data set [12] is S. aureus SA007 (MDR clinical isolate). Format: cell-based, Staphylococcus aureus. The method, then:
as §1, §2

Data set [13] relates to S. aureus ATCC 25923. Format: cell-based, Staphylococcus aureus. The method, then: as §1, §2
The subject of data set [14] is K. pneumoniae KP004 (MDR clinical isolate). The format is cell-based, Klebsiella pneumoniae. The method, then:
as §1, §2

Data set [15] concerns K. pneumoniae KP010 (MDR clinical isolate). The format is cell-based, Klebsiella pneumoniae. How it is done: as §1, §2
Data set [16] relates to HaCaT human epidermal keratinocytes. The format is cell-based. The conditions noted are these: 24 h. How it is done:
(§3) Since this type of IL-AMP conjugate is being developed for its potential interest to address infected skin lesions, a preliminary assessment of the toxicity of both the conjugate and the parent peptide towards HaCaT human epidermal keratinocytes was carried out by the 3-(4,5-dimethylthiazol-2-yl)-2,5-diphenyltetrazolium bromide (MTT) assay, as previously described by us. […] This activity was assessed in two different ways: (i) inhibition of biofilm formation, and (ii) effect on a preformed biofilm. For evaluation of the inhibition of biofilm formation, both conjugate and parent peptide were tested at MIC and sub-inhibitory concentrations (½×MIC and at ¼×MIC) following previously established procedures, and the mass of biofilm formed at these concentrations was assessed through the crystal violet assay. […] Relevantly, the absorbance measured for the control (absence of test compounds) provides confirmation that the bacterial strain used is a good biofilm producer.
The cytotoxicity of peptides to HaCat cells was evaluated using the standard MTT assay. Briefly, cells were seeded at a density of 4 × 10^4 cells/mL, respectively, in 96-well plates and incubated at 37 °C in a 5% CO2 atmosphere. […] Absorbance was read at 570 nm in FlexStation®3 Multi-Mode Microplate Reader (Molecular Devices, San Jose, CA, USA).

Data set [17] has as its system K. pneumoniae KP010 biofilms. Kind of data set: Inhibition of biofilm formation, crystal violet assay. The conditions noted are these: KP010, TSB, crystal violet absorbance at 595 nm, three independent experiments in triplicate. Format: cell-based, Klebsiella pneumoniae. The method, then:
as §3
The ability of the test compounds to inhibit the biofilm formation by KP010 (a MDR clinical isolate of K. pneumoniae) was assessed at the respective MIC, ^1/2×MIC and ^1/4×MIC values in tryptic soy broth (TSB) using the crystal violet assay as previously reported. […]
Figure 1 Effects of 3.1-PP4 and MeIm-3.1-PP4 on formation of K. pneumoniae KP010 biofilms (biomass quantification by crystal violet absorbance at 595 nm). […]

For data set [18], the system named is tyrosinase. Kind of data set: in vitro. Particulars: mushroom (Agaricus bisporus), isolated enzyme, pH 6.8. The format is in vitro ADME. From the text: One of our main motivations to explore IL-peptide conjugates concerns improving the enzymatic stability of the peptide moiety, as poor pharmacokinetics is a major obstacle towards clinical translation of AMP and other bioactive peptides, even when topical applications are envisaged. For instance, in a non-healing infected wound, peptides are vulnerable to modification by endogenous (e.g., tyrosinase, elastase, metalloproteinases) and exogenous (produced by colonizing microbes) enzymes in the wound site. […] The samples were collected at different time points, for 24 h, and were analyzed by HPLC. […]
The IL-peptide conjugate and the parent peptide were both incubated at a final concentration of 10 mM in phosphate buffer (pH 6.8), with the enzyme tyrosinase (CAS:9002-10-2; T3824-250KU) at 18 U/mL, for 24 h at 37 °C. […] The supernatant was then analyzed by HPLC, using a Hitachi-Merck LaChrom Elite system with a reverse-phase C18 column (125 × […] and 5 µm pore size). […]
Results from peptide stability were expressed as the variation of the % of starting compound over time (mean ± SD). Data were analyzed in GraphPad Prism 8.0.1 Software using two-way analysis of variance (ANOVA) followed by Tukey’s multiple comparison test. […]

In data set [19] the test system is preformed biofilms of KP010 (MDR clinical isolate of K. pneumoniae). Kind of data set: Effect on preformed biofilms, OD600 of planktonic phase. Format: cell-based, Klebsiella pneumoniae. The conditions noted are these: 20×MIC, 24 h at 37 °C, untreated biofilms 0.740 ± 0.047, mean ± SD of three independent experiments in triplicate. How it is done:
Biofilm proliferation was determined by measuring the optical density (OD) of the planktonic phase of the biofilms, both treated with the test compounds and the untreated control. […] This improvement, afforded by the insertion of the imidazolium motif, is in line with previous reports of enhanced antibacterial activity when combining imidazolium ILs with non-peptide antibiotics, like ampicillin, including against resistant bacterial strains.
To assess the effects of test compounds on 48 h preformed biofilms of KP010, the biofilms were first grown in TSB from a starting inoculum of 1 × 10^6 CFU/mL in 96-well microtiter plates. After 48 h of incubation at 37 °C, the planktonic cells were removed, and the wells were rinsed and filled with the test compound at a 20× MIC concentration. The optical density at 600 nm was measured at time 0 and after incubation for 24 h at 37 °C. The reduction in the biofilm proliferation was calculated in comparison to the respective non-treated biofilms. Three independent experiments were performed in triplicate.

The term IC50 denotes the concentration that gives 50% inhibition. The low end stands for higher potency, the high end for lower potency. Regarding KKLLKWLLKLLKTTKS-NH2 [3.1-PP4], the MIC in data set [1] is recorded as 1.3 (0.7) μg/mL; in data set [2], 1.3 (0.7) μg/mL; in data set [3] it was 1.3 (0.7) μg/mL; in data set [4], 0.6 (0.3) μg/mL; in data set [5], 1.3 (0.7) μg/mL; in [6] it was 1.3 (0.7) μg/mL. Moreover, the MIC is recorded as 1.3 (0.7) μg/mL in data set [7]; 1.3 (0.7) μg/mL in [8]; 2.3 (1.2) μg/mL in data set [9]; 2.3 (1.2) ^a μg/mL in data set [10]; 41.3 (21.3) μg/mL in [11]; 10.3 (5.3) μg/mL in [12]. Moreover, the MIC in data set [13] was 10.3 (5.3) ^a μg/mL; in [14] it was 2.3 (1.2) μg/mL; in data set [15] it was 2.3 (1.2) μg/mL. Moreover, 34.2 ± 0.5 µM corresponded to half-maximal inhibition in [16] (IC50).
One may read the fraction remaining as what is left of the initial amount, in per cent. Lower therefore signals a greater loss. As for `CC(C)C[C@H](NC(=O)[C@H](CCCCN)NC(=O)[C@H](CCCCN)NC(=O)Cn1cc(Cn2cc[n+](C)c2)nn1)C(=O)N[C@@H](CC(C)C)C(=O)N[C@@H](CCCCN)C(=O)N[C@@H](Cc1c[nH]c2ccccc12)C(=O)N[C@@H](CC(C)C)C(=O)N[C@@H](CC(C)C)C(=O)N[C@@H](CCCCN)C(=O)N[C@@H](CC(C)C)C(=O)N[C@@H](CC(C)C)C(=O)N[C@@H](CCCCN)C(=O)N[C@H](C(=O)N[C@H](C(=O)N[C@@H](CCCCN)C(=O)N[C@@H](CO)C(N)=O)[C@@H](C)O)[C@@H](C)O` [MeIm-3.1-PP4] (X1-KKLLKWLLKLLKTTKS-NH2), the MIC is 1.5 (0.7) μg/mL in [1]; 0.8 (0.4) μg/mL in [2]; 3.1 (1.4) μg/mL in [3]; 1.5 (0.7) μg/mL in data set [4]; 1.5 (0.7) μg/mL in [5]; 0.8 (0.4) μg/mL in data set [6]. In addition, the MIC is recorded as 3.1 (1.4) μg/mL in [7]; 1.5 (0.7) μg/mL in [8]; 1.5 (0.7) μg/mL in [9]; 3.1 (1.4) μg/mL in data set [10]; 99.3 (46.3) μg/mL in [11]; 12.4 (5.8) μg/mL in data set [12]. Besides, the MIC in data set [13] was 24.8 (11.6) ^a μg/mL; in data set [14], 49.6 (23.1) μg/mL; in [15], 6.2 (2.9) μg/mL. Also, the “biofilm formed at MIC” value in data set [17] (at MIC) was “only a little amount of biofilm was formed”. Also, in data set [17] (at ½×MIC and ¼×MIC), the “biofilm biomass formed at sub-inhibitory concentrations” value is recorded as “lower than the control”. Also, the amount remaining at 24 h, 10 mM in data set [18] is about 84%. Also, in [19], the “OD600 of planktonic phase of peptide-treated biofilms” value was determined as 0.497± 0.050. The same compound showed an IC50 in [16] of 19.4 ± 0.2 µM.
